Like-named read-outs stand apart in the source and are kept apart here. Where no end group is shown, it is not given here.
How the values were obtained:
[1] = system: E. coli ATCC 2592; details: ATCC 2592
[2] = system: P. aeruginosa ATCC 10145; details: ATCC 10145
[3] = system: S. aureus (methicillin resistant) ATCC 33591
[4] = system: C. albicans 10231; assay type: cell-based; details: 10231
Summary of the method: (§1)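 Broth microdilution per NCCLS, adapted for fungi with Sabouraud Dextrose Broth; KFAK-repeat peptide multimers in two-fold dilutions from 1,000 to 1 μg/ml. Growth by OD620 after overnight incubation; IC50 by sigmoidal fit, in duplicate, repeated at least twice.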

[5] = system: Cr. Neoformans 32045; assay type: cell-based
Summary of the method: as §1

[6] = Red blood cell toxicity; assay type: cell-based; details: red blood cells (RBC); RBCs; concentration required for 50% toxicity; read-out: TX50
[7] = system: Red blood cells (RBC); assay: Red blood cell toxicity; assay type: cell-based
[8] = system: HeLa cell line; assay: HeLa MTS cellular reduction toxicity assay; assay type: cell-based; details: for TX50: 24 h, MTS
Summary of the method: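 HeLa cells grown 48 h, then exposed to serial 2-fold peptide dilutions for 24 h at 37 °C, 5% CO2. MTS-PMS added for 1 h; absorbance at 490 nm compared with untreated cells. TX50 (50% toxicity concentration) from sigmoidal curve fit.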

[9] = system: P. aeruginosa ATCC 15442; assay: HMARQ biocidal kill activity; assay type: cell-based; details: P. aeruginosa ATCC 15442 (gram−)
Summary of the method: (§2)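 Inoculated sample matrix (200–300 μL) added to biocide in 96-well blocks alongside untreated controls; for kill-time runs organisms added after biocide. Viable counts by MPN serial 1:10 dilution in TSB with 50 μM resazurin indicator; values are ppm (μg/mL) giving 3.5 log kill versus untreated at 15 min or 24 h.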

[10] = system: Staph. aureus ATCC 6538; assay: HMARQ biocidal kill activity; assay type: cell-based; details: Staph. aureus ATCC 6538 (gram+)
Summary of the method: as §2

[11] = S. aureus (methicillin resistant) 33591, gram+

Sequence | IC50 [1] [µg/mL] | MIC [1] [µg/mL] | IC50 [2] [µg/mL] | MIC [2] [µg/mL] | IC50 ([3]; ATCC 33591) [µg/mL] | MIC ([3]; ATCC 33591) [µg/mL] | IC50 [4] [µg/mL] | MIC [4] [µg/mL] | IC50 [5] [µg/mL] | MIC [5] [µg/mL] | HC50 at 24 h [6] [µg/mL] | % kill at 250 μg/ml [7] [%] | % kill at 500 μg/ml [8] [%] | TX50 [8] [µg/mL] | ppm needed for 3.5 log kill at 15 min [9] [ppm] | ppm needed for 3.5 log kill at 15 min [10] | ppm needed for 3.5 log kill at 24 hr [10] | ppm needed for 3.5 log kill at 24 hr [9] [ppm] | other results
LKLKLKLKLKLKLKLKLKLK [LK (10), LK LK LK LK LK LK LK LK LK LK] | 127 | 150 to 250 | 47 | 125 | 29 | 125 to 250 | 187 | 250 to 500 | 3.0 | 62 to 125 | > 500 | 27 | 65.0 | >500 | 8 | 16 or less ppm | 16 or less ppm |  | 
LRLRLRLRLRLRLR [LR (7), LR LR LR LR LR LR LR] | 15 | 31 to 62 | 109 | 125 |  |  | 182 | 250 to 500 | 1.8 | 4 to 8 | > 500 |  | 86.5 | >500 | >63 | 31 ppm | 7.8 ppm | 4 | IC50 [3, 11]: 90 µg/mL; MIC [3, 11]: 250 to 500 µg/mL; % kill at 250 μg/ml ([7]; RBCs, 250 μg/ml): 15%
LRLRLRLRLRLRLRLRLRLRLR [LR (11), LR LR LR LR LR LR LR LR LR LR LR] | 96 | 125 to 250 | >250 | >250 | 39 | 125 to 250 | >500 | >500 | 3.3 | 62 to 125 | 450 | 41 | 66.6 | >500 |  | 16 ppm | 8 ppm | 8 | 
RFARRFARRFARRFARRFARRFARRFAR [RFAR (7), RFAR RFAR RFAR RFAR RFAR RFAR RFAR] | 8 | 32 to 62 | 20 | 62 | 31 | 125 to 250 | 172 | 250 to 500 | 45 | 62 to 125 | 20 | 100 | 12.4 | 106 | 63 | >500 ppm | 4 ppm | 125 | 
RFARRFARRFARRFARRFARRFARRFARRFAR [RFAR (8), RFAR RFAR RFAR RFAR RFAR RFAR RFAR RFAR] | 12 | 32 to 62 | 30 | 62 | 20 | 125 to 250 | 144 | 250 to 500 | 32 | 62 to 125 | 17 | 100 | 9.5 | 71 | >500 | >500 ppm | 125 ppm | 16 | 

Source: patent publication US7091185B2, “Periodic antimicrobial peptides” (Dow Global Technologies Inc., priority 2003, dated 2006)
